In patent US5389627A, “Cephem compounds” (priority 1993, dated 1995):
≈ marks a conversion by molar mass, not a printed value.

Tests used:
[1] = tested on: P.aeruginosa ATCC27853; assay: In vitro antibacterial activity, minimum inhibitory concentration; assay type: cell-based; conditions: Pseudomonas aeruginosa; P.aeruginosa ATCC27853; read-out: Minimum Inhibitory Concentration (MIC)
Description: (§1) As reference compounds, Cefotaxime (CTX), Ceftazidime (CAZ) and Cefpirome (CPR) were employed.

[2] = tested on: K.pneumoniae C1040; assay: as above; assay type: cell-based; conditions: Klebsiella pneumoniae; K.pneumoniae C1040; read-out: Minimum Inhibitory Concentration (MIC)
Description: as §1

[3] = tested on: S.aureus ATCC29213; assay: as above; assay type: cell-based; conditions: Staphylococcus aureus; S.aureus ATCC29213; read-out: Minimum Inhibitory Concentration (MIC)
Description: as §1

[4] = tested on: S.aureus C4036; assay: as above; assay type: cell-based; conditions: Staphylococcus aureus; S.aureus C4036; read-out: Minimum Inhibitory Concentration (MIC)
Description: as §1

[5] = tested on: P.rettgeri ATCC9919; assay: as above; assay type: cell-based; conditions: Providencia rettgeri; P.rettgeri ATCC9919; read-out: Minimum Inhibitory Concentration (MIC)
Description: as §1

[6] = tested on: S.typhimurium C4045; assay: as above; assay type: cell-based; conditions: Salmonella enterica; S.typhimurium C4045; read-out: Minimum Inhibitory Concentration (MIC)
Description: as §1

[7] = tested on: S.marcescens C1052; assay: as above; assay type: cell-based; conditions: Serratia marcescens; S.marcescens C1052; read-out: Minimum Inhibitory Concentration (MIC)
Description: as §1

[8] = tested on: P.mirabilis ATCC25933; assay: as above; assay type: cell-based; conditions: Proteus mirabilis; P.mirabilis ATCC25933; read-out: Minimum Inhibitory Concentration (MIC)
Description: as §1

[9] = tested on: S.marcescens ATCC27117; assay: as above; assay type: cell-based; conditions: Serratia marcescens; S.marcescens ATCC27117; read-out: Minimum Inhibitory Concentration (MIC)
Description: as §1

[10] = tested on: P.aeruginosa C2027; assay: as above; assay type: cell-based; conditions: Pseudomonas aeruginosa; P.aeruginosa C2027; read-out: Minimum Inhibitory Concentration (MIC)
Description: as §1

[11] = tested on: E.coli ATCC25922; assay: as above; assay type: cell-based; conditions: Escherichia coli; E.coli ATCC25922; read-out: Minimum Inhibitory Concentration (MIC)
Description: as §1

[12] = tested on: K.oxytoca C4022; assay: as above; assay type: cell-based; conditions: Klebsiella oxytoca; K.oxytoca C4022; read-out: Minimum Inhibitory Concentration (MIC)
Description: as §1

[13] = tested on: S.epidermidis ATCC12228; assay: as above; assay type: cell-based; conditions: Staphylococcus epidermidis; S.epidermidis ATCC12228; read-out: Minimum Inhibitory Concentration (MIC)
Description: as §1

[14] = tested on: P.aeruginosa C4070; assay: as above; assay type: cell-based; conditions: Pseudomonas aeruginosa; P.aeruginosa C4070; read-out: Minimum Inhibitory Concentration (MIC)
Description: as §1

[15] = tested on: MRSA C2208; assay: as above; assay type: cell-based; conditions: Staphylococcus aureus; MRSA C2208; read-out: Minimum Inhibitory Concentration (MIC)
Description: as §1

[16] = tested on: E.cloacae C4009; assay: as above; assay type: cell-based; conditions: Enterobacter cloacae; E.cloacae C4009; read-out: Minimum Inhibitory Concentration (MIC)
Description: as §1

[17] = tested on: S.aureus Smith; assay: as above; assay type: cell-based; conditions: Staphylococcus aureus; S.aureus Smith; read-out: Minimum Inhibitory Concentration (MIC)
Description: as §1

[18] = tested on: S.pyogenes C4003; assay: as above; assay type: cell-based; conditions: Streptococcus pyogenes; S.pyogenes C4003; read-out: Minimum Inhibitory Concentration (MIC)
Description: as §1

[19] = tested on: E.coli C4002; assay: as above; assay type: cell-based; conditions: Escherichia coli; E.coli C4002; read-out: Minimum Inhibitory Concentration (MIC)
Description: as §1

[20] = tested on: P.aeruginosa ATCC10145; assay: as above; assay type: cell-based; conditions: Pseudomonas aeruginosa; P.aeruginosa ATCC10145; read-out: Minimum Inhibitory Concentration (MIC)
Description: as §1

[21] = tested on: S.Faecalis ATCC29212; assay: as above; assay type: cell-based; conditions: Enterococcus faecalis
Description: as §1

[22] = tested on: S.pyogenes ATCC 8668; assay: as above; assay type: cell-based; conditions: Streptococcus pyogenes, ATCC8668; S.pyogenes ATCC 8668; read-out: Minimum Inhibitory Concentration (MIC)
Description: as §1

[23] = tested on: E.cloacae C4008; assay: as above; assay type: cell-based; conditions: Enterobacter cloacae; E.cloacae C4008; read-out: Minimum Inhibitory Concentration (MIC)
Description: as §1

[24] = tested on: E.coli ATCC10536; assay: as above; assay type: cell-based; conditions: Escherichia coli; E.coli ATCC10536; read-out: Minimum Inhibitory Concentration (MIC)
Description: as §1

[25] = tested on: K.pneumoniae ATCC10031; assay: as above; assay type: cell-based; conditions: Klebsiella pneumoniae; K.pneumoniae ATCC10031; read-out: Minimum Inhibitory Concentration (MIC)
Description: as §1

[26] = Pharmacokinetics (plasma half-life); assay type: in vivo; conditions: SD Rat, mean value, read-out: Half-Life (T1/2)
Method: In order to investigate the pharmacokinetics properties of the compounds according to the present invention, the plasma half-life was determined in accordance with the method described in Antimicrobial Agents and Chemotherapy, 26(2), p.

| Structure (SMILES) | MIC [1] | MIC [2] | MIC [3] | MIC [4] | MIC [5] | MIC [6] | MIC [7] | MIC [8] | MIC [9] | MIC [10] | MIC [11] | MIC [12] | MIC [13] | MIC [14] | MIC [15] | MIC [16] | MIC [17] | MIC [18] | MIC [19] | MIC [20] | further results |
| --- | --- | --- | --- | --- | --- | --- | --- | --- | --- | --- | --- | --- | --- | --- | --- | --- | --- | --- | --- | --- | --- |
| CO/N=C(\C(=O)N[C@@H]1C(=O)N2C(C(=O)[O-])=C(C[n+]3ccc4c(c3)[nH]c(=O)n4C)CS[C@H]12)c1nsc(N)n1 [Ex. 6, 7-β-[(Z)-2-(5-Amino-1,2,4-thiadiazol-3-yl)-2-methoxyiminoacetamido]-3-[1-methyl-2-(3H)-oxo-imidazo[4,5-c]pyridiniummethyl]-3-cephem-4-carboxylate] | 3.13 µg/mL (≈ 5.74 µM) | 0.007 µg/mL (≈ 0.0128 µM) | 3.13 µg/mL (≈ 5.74 µM) | 3.13 µg/mL (≈ 5.74 µM) | 0.007 µg/mL (≈ 0.0128 µM) | 0.025 µg/mL (≈ 0.0458 µM) | 0.05 µg/mL (≈ 0.0916 µM) | 0.025 µg/mL (≈ 0.0458 µM) | 0.025 µg/mL (≈ 0.0458 µM) | 1.56 µg/mL (≈ 2.86 µM) | 0.025 µg/mL (≈ 0.0458 µM) | 1.56 µg/mL (≈ 2.86 µM) | 1.56 µg/mL (≈ 2.86 µM) | 3.13 µg/mL (≈ 5.74 µM) | > 100 µg/mL | 0.013 µg/mL (≈ 0.0238 µM) | 3.13 µg/mL (≈ 5.74 µM) | 0.004 µg/mL (≈ 0.00733 µM) | 0.025 µg/mL (≈ 0.0458 µM) | 1.56 µg/mL (≈ 2.86 µM) | MIC [21]: > 100 µg/mL; MIC [22]: 0.007 µg/mL (≈ 0.0128 µM); MIC [23]: 0.013 µg/mL (≈ 0.0238 µM); MIC [24]: 0.007 µg/mL (≈ 0.0128 µM); MIC [25]: 0.007 µg/mL (≈ 0.0128 µM) |
| CO/N=C(\C(=O)N[C@@H]1C(=O)N2C(C(=O)[O-])=C(C[n+]3ccc4[nH]c(=O)[nH]c4c3)CS[C@H]12)c1nsc(N)n1 [Ex. 5, 7-β-[(Z)-2-(5-Amino-1,2,4-thiadiazol-3-yl)-2-methoxyiminoacetamido]-3-[2-(1H,3H)-oxo-imidazo[4,5-c]pyridiniummethyl]-3-cephem-4-carboxylate] | 0.78 µg/mL (≈ 1.47 µM) | 0.004 µg/mL (≈ 0.00753 µM) | 1.56 µg/mL (≈ 2.93 µM) | 1.56 µg/mL (≈ 2.93 µM) | 0.007 µg/mL (≈ 0.0132 µM) | 0.007 µg/mL (≈ 0.0132 µM) | 0.025 µg/mL (≈ 0.047 µM) | 0.025 µg/mL (≈ 0.047 µM) | 0.007 µg/mL (≈ 0.0132 µM) | 0.78 µg/mL (≈ 1.47 µM) | 0.013 µg/mL (≈ 0.0245 µM) | 0.78 µg/mL (≈ 1.47 µM) | 0.78 µg/mL (≈ 1.47 µM) | 1.56 µg/mL (≈ 2.93 µM) | > 100 µg/mL | 0.007 µg/mL (≈ 0.0132 µM) | 1.56 µg/mL (≈ 2.93 µM) | 0.013 µg/mL (≈ 0.0245 µM) | 0.007 µg/mL (≈ 0.0132 µM) | 1.56 µg/mL (≈ 2.93 µM) | half-life [26]: 24 min; MIC [21]: > 100 µg/mL; MIC [22]: 0.013 µg/mL (≈ 0.0245 µM); MIC [23]: 0.002 µg/mL (≈ 0.00376 µM); MIC [24]: 0.004 µg/mL (≈ 0.00753 µM); MIC [25]: 0.004 µg/mL (≈ 0.00753 µM) |
| Nc1nc(/C(=N/O)C(=O)N[C@@H]2C(=O)N3C(C(=O)[O-])=C(C[n+]4ccc5[nH]c(=O)[nH]c5c4)CS[C@H]23)ns1 [Ex. 7, 7-β-[(Z)-2-(5-Amino-1,2,4-thiadiazol-3-yl)-2-hydroxyiminoacetamido]-3-[2-(1H, 3H)-oxo-imidazo[4,5-c]pyridiniummethyl]-3-cephem-4-carboxylate] | 50 µg/mL (≈ 96.6 µM) | 1.56 µg/mL (≈ 3.01 µM) | 0.78 µg/mL (≈ 1.51 µM) | 1.56 µg/mL (≈ 3.01 µM) | 0.5 µg/mL (≈ 0.966 µM) | 0.1 µg/mL (≈ 0.193 µM) | 0.2 µg/mL (≈ 0.386 µM) | 0.1 µg/mL (≈ 0.193 µM) | 0.1 µg/mL (≈ 0.193 µM) | 6.25 µg/mL (≈ 12.1 µM) | 0.05 µg/mL (≈ 0.0966 µM) | 1.56 µg/mL (≈ 3.01 µM) | 3.13 µg/mL (≈ 6.05 µM) | 50 µg/mL (≈ 96.6 µM) | > 100 µg/mL | 0.1 µg/mL (≈ 0.193 µM) | 6.25 µg/mL (≈ 12.1 µM) | 0.2 µg/mL (≈ 0.386 µM) | 6.25 µg/mL (≈ 12.1 µM) | 12.5 µg/mL (≈ 24.2 µM) | MIC [21]: > 100 µg/mL; MIC [22]: 0.1 µg/mL (≈ 0.193 µM); MIC [23]: 0.1 µg/mL (≈ 0.193 µM); MIC [24]: 0.025 µg/mL (≈ 0.0483 µM); MIC [25]: 0.025 µg/mL (≈ 0.0483 µM) |
